Data on 2 compounds can be found in patent US20050065218A1, “Utilization of alverine, alone or in combination with tricyclic antidepressant or a specific serotonin reuptake inhibitor for the treatment of depression” (priority 2003, published 2005).

“And” between values parts separate entries of the source, which are not always exact repeats. Equal entries are not always repeated.

What all share (assay type): in vivo
Assay [1] has as its system Swiss mice CD1. As to the kind of experiment: forced swim test, Alverine and fluoxetine administered intraperitoneally to mice (Example 3, second test). As to conditions: for immobility time, individual animals / immobility time, Mean: 30 minutes prior to the test; for immobility time, Mean: n = 10. The procedure: These are Swiss mice CD1 (CD-1® (ICR) IGS (Charles River France) weighing between 25 and 35 g. […] They are placed 15 to 20 per cage, over an acclimatising period of at least 5 days prior to the tests. They are identified by marking on the fur. […] The mice were divided into two test comprising six groups of 10 mice each. For the second test: The first group is the control group: it is treated only by excipient. […] The doses are expressed in terms of free active substances. The test substances are prepared extemporaneously in a saline solution. The treatments are co-administered 30 minutes prior to the test in a coded and random order intraperitoneally with a volume of 10 ml/kg (5 ml/kg for each administration). […] The total duration of immobility is measured over the last four minutes of the test, six minutes in total. A mouse is deemed immobile when it ceases struggling and floats in the water without movements superfluous to those allowing it to keep its head above water. A drop in immobility time is the reflection of an antidepressant effect. The forced swim test is a pre-clinical behavioural model, which has good predictive validity and is widely employed for determining the efficacy of antidepressant medications (Borsini and Meli, 1988). The results are expressed in total duration of immobility in seconds and as a percentage of variation of the total duration of immobility calculated from the average value of the control group. The statistical significance between two treated groups is determined by using a Student test (P<0.05) The data are analysed using <<SigmaStat>> software.

Assay [2] has as its system Swiss mice CD1. As to the kind of experiment: forced swim test, Alverine administered intraperitoneally to mice (Example 1). As to conditions: Imipramine 10 mg/kg intraperitoneally. Here is the method:
To establish the advantages according to the present invention a study was carried out to 50 mice. They were divided into 5 groups of 10 mice each. These are Swiss mice CD1 (CD-1® (ICR) IGS (Charles River France) weighing between 25 and 35 g.
They were placed in a room at a temperature of between 19.5 and 24.5° C. and a relative humidity of 45 to 65% with a light/dark cycle of 12 h, ad libitum access to filtered water and pellets of laboratory-standard food.
They are placed 15 to 20 per cage, over an acclimatising period of at least 5 days prior to the tests. They are identified by marking on the fur.
The substance to be tested is Alverine citrate (Sigma, in the form of dry powder, with a salt/base ratio of 1.68) comparatively to imipramine chlorhydrate (Sigma, in the form of dry powder, with a salt/base ratio of 1.13).
The first group is the control group: it is treated only by excipient.
The second group is treated with Alverine at a dose of 3 mg/kg
The third group is treated with Alverine at a dose of 10 mg/kg
The fourth group is treated with Alverine at a dose of 30 mg/kg
The fifth group is treated with imipramine (tricyclic antidepressant) at a dose of 10 mg/kg
The doses are expressed in terms of free active substances. The substances are prepared extemporaneously in the excipient. The treatments are administered 30 minutes prior to the test in a coded and random order intraperitoneally with a volume of 10 ml/kg.
Thirty minutes following administration the five groups of mice are subjected to the forced swim test, in a vertical Plexiglas cylinder (height 24 cm, diameter 9 cm) containing water (height 6 cm, temperature 18-22° C.). The total duration of immobility is measured over the last four minutes of the test, six minutes in total. A mouse is deemed immobile when it ceases struggling and floats in the water without movements superfluous to those allowing it to keep its head above water. A drop in immobility time is the reflection of an antidepressant effect.
The forced swim test is a pre-clinical behavioural model, which has good predictive validity and is widely employed for determining the efficacy of antidepressant medications (Borsini and Meli, 1988).
The results are expressed in total duration of immobility in seconds and as a percentage of variation of the total duration of immobility calculated from the average value of the control group.
The statistical significance between the treated groups and the control group is determined by a Dunnett test using the residual variation according to analysis of the variance (P<0.05). The data are analysed using <<SigmaStat>> software.

The test system of assay [3] is Swiss mice CD1. As to the kind of experiment: forced swim test, Alverine administered orally to mice (Example 2).
The subject of assay [4] is Swiss mice CD1. As to the kind of experiment: forced swim test, Alverine and imipramine administered intraperitoneally to mice (Example 3, first test). To be noted: for immobility time, individual animals / immobility time, Mean: 30 minutes prior to the test; for immobility time, Mean: n = 10. Also noted: key to Dunnett test vs control group: * indicates a significant difference for p < 0.05 (Dunnett test); ns indicates an insignificant result. The procedure:
These are Swiss mice CD1 (CD-1® (ICR) IGS (Charles River France) weighing between 25 and 35 g. […] They are placed 15 to 20 per cage, over an acclimatising period of at least 5 days prior to the tests. They are identified by marking on the fur. […] The mice were divided into two test comprising six groups of 10 mice each. For the first test: The first group is the control group: it is treated only by excipient. The second group is treated with imipramine at a dose of 3 mg/kg The third group is treated with Alverine at a dose of 3 mg/kg The fourth group is treated with Alverine at a dose of 3 mg/kg and imipramine at a dose of 3 mg/kg The fifth group is treated with imipramine at a dose of 10 mg/kg […] The doses are expressed in terms of free active substances. The test substances are prepared extemporaneously in a saline solution. The treatments are co-administered 30 minutes prior to the test in a coded and random order intraperitoneally with a volume of 10 ml/kg (5 ml/kg for each administration). Thirty minutes following administration the six groups of mice are subjected to the forced swim test, in a vertical Plexiglas cylinder (height 24 cm, diameter 9 cm) containing water (height 6 cm, temperature 18-22° C.). The total duration of immobility is measured over the last four minutes of the test, six minutes in total. A mouse is deemed immobile when it ceases struggling and floats in the water without movements superfluous to those allowing it to keep its head above water. A drop in immobility time is the reflection of an antidepressant effect. The forced swim test is a pre-clinical behavioural model, which has good predictive validity and is widely employed for determining the efficacy of antidepressant medications (Borsini and Meli, 1988). The results are expressed in total duration of immobility in seconds and as a percentage of variation of the total duration of immobility calculated from the average value of the control group. The statistical significance between two treated groups is determined by using a Student test (P<0.05) The data are analysed using <<SigmaStat>> software.

Setting [5] is: Fluoxetine 3 mg/kg intraperitoneally.
Setting [6] is: Fluoxetine 10 mg/kg intraperitoneally.
The mark [7] stands for this setting: tested alone at 3 mg/kg intraperitoneally.
Setting [8] is: Imipramine 3 mg/kg intraperitoneally.
Setting [9] is: Imipramine 10 mg/kg intraperitoneally.

As for `CNCCC(Oc1ccc(C(F)(F)F)cc1)c1ccccc1` (stereo not drawn) [Fluoxetine, fluoxetine], in assay [1] (setting [5]), the “% of variation of immobility time vs control group” value (“% of variation of immobility time” for short) is on record as −30%; the “Dunnett test vs control group” value was “* (* indicates a significant difference for p < 0.05 (Dunnett test))”; the “immobility time, individual animals” value was 149 s and 18 s and 101 s and 99 s and 10 s and 100 s and 103 s; the “immobility time, Mean” value turned out to be 105.6 s. In assay [1] (setting [6]), the “% of variation of immobility time” value was −45%; the “Dunnett test vs control group” value is “* (* indicates a significant difference for p < 0.05 (Dunnett test))”; the “immobility time, individual animals” value was 76 sec (2×) and 83 sec and 105 sec and 90 sec and 28 sec and 88 sec and 34 sec; the “immobility time, Mean” value amounted to 82.7 s. Further, the “decrease in the duration of immobilisation as compared to the control group (in words)” value in assay [1] (setting [7]) is on record as “statistically significant decrease”.
For `CN(C)CCCN1c2ccccc2CCc2ccccc21` [Imipramine, imipramine], the “% of variation of immobility time” value in assay [2] is −62%; in assay [3] (Imipramine 30 mg/kg orally), −58%; in assay [4] (setting [8]) it was −24%; in assay [4] (setting [9]), −67%. The “Dunnett test vs control group” value was “* (* indicates a significant difference for p < 0.05 (Dunnett test))” in assay [2], “* (* indicates a significant difference for p < 0.05 (Dunnett test))” in assay [3] (Imipramine 30 mg/kg orally), “ns” in assay [4] (setting [8]) and “* (* indicates a significant difference for p < 0.05 (Dunnett test))” in assay [4] (setting [9]). In addition, the “immobility time, individual animals” value in assay [2] (30 minutes prior to the test) was 67 s and 70 s and 1 s and 89 s and 3 s and 9 s and 38 s and 99 s and 53 s and 65 s; in assay [3] (Imipramine 30 mg/kg orally, 60 minutes prior to the test), 52 s and 64 s and 55 s and 5 s and 75 s and 67 s and 70 s and 89 s and 45 s and 96 s; in assay [4] (setting [8]) it was 121 sec (2×) and 70 sec and 74 sec and 122 sec and 93 sec and 94 sec and 141 sec and 133 sec and 123 sec; in assay [4] (setting [9]), 0 s and 62 s and 38 s and 54 s and 45 s and 92 s and 26 s and 77 s and 80 s and 4 s. Besides, the “immobility time, Mean” value in assay [2] (30 minutes prior to the test, N = 10) amounted to 49.4 s; in assay [3] (Imipramine 30 mg/kg orally, 60 minutes prior to the test, N = 10) it was 61.9 s; in assay [4] (setting [8]) it was 109.2 s; in assay [4] (setting [9]), 47.8 s. Further, in assay [3] (Imipramine 30 mg/kg orally vs Alverine 100 mg/kg orally), the “immobility time compared with mice treated with Alverine” value is recorded as “comparable to the mice of the fourth group treated at 100 mg/kg of Alverine”. The “decrease in the duration of immobilisation as compared to the control group (in words)” value in assay [4] (setting [7]) is given as “statistically insignificant decrease”.
